What was measured:
[1] = molecular target: Poly [ADP-ribose] polymerase 1 (Homo sapiens, UniProt P09874); experiment: PARP1 and PARP2 Chemiluminescent Assay
PARP2 = PARP2 (Homo sapiens, UniProt Q9UGN5); experiment: PARP1 and PARP2 Chemiluminescent Assay
PARP2, sequence (Q9UGN5 whole entry): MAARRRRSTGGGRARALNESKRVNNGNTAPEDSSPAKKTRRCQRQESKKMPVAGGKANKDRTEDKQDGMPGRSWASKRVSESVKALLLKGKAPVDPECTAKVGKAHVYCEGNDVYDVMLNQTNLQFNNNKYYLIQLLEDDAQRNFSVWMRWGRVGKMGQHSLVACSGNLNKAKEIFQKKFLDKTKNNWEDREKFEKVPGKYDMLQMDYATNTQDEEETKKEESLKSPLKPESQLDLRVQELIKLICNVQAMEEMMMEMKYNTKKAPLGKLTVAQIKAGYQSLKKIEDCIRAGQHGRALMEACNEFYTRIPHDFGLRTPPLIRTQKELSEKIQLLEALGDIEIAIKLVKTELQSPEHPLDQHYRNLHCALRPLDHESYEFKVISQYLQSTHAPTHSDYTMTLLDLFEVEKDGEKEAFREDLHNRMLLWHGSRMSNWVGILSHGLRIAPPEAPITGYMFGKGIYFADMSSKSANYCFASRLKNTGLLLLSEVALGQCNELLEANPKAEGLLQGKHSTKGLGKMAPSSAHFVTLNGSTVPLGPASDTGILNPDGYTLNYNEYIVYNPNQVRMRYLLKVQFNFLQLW

Poly [ADP-ribose] polymerase 1, sequence (P09874 whole entry): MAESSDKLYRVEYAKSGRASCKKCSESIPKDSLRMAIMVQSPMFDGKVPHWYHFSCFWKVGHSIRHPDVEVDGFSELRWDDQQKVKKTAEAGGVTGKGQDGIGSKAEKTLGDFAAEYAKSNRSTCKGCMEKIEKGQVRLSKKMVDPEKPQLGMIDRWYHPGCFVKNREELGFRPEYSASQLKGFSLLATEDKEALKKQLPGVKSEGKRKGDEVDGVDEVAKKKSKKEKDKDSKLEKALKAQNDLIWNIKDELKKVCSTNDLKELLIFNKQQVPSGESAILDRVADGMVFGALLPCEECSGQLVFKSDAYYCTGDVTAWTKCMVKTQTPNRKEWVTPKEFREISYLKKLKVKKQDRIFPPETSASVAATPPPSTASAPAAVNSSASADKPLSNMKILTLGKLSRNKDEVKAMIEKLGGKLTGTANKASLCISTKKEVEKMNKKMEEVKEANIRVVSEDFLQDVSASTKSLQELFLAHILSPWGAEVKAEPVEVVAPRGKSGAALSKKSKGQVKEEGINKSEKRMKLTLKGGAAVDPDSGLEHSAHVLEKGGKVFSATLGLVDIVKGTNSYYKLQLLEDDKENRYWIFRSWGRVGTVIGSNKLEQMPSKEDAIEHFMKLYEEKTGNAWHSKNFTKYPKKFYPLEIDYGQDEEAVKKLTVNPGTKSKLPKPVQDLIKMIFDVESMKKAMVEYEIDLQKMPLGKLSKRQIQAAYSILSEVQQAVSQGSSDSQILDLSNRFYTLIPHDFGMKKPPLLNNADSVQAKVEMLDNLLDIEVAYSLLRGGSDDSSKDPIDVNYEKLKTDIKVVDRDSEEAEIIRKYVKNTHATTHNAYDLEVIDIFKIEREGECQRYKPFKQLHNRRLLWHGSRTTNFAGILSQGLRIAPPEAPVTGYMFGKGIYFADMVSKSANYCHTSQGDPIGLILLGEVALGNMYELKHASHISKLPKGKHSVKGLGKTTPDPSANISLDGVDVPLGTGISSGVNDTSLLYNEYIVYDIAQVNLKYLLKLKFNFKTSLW

IC50 [1] [nM]	IC50 (PARP2) [nM]	SMILES
2.13	> 10000	CNC(=O)c1ccc(N2CCN(Cc3ccc4c([nH]c(=O)n5ccnc45)c3F)CC2)c(C)n1 [US20250215013, Example 50]
0.4	1540	CNC(=O)c1ccc(N2CCN(Cc3ccc4c([nH]c(=O)c5c(F)cnn54)c3F)CC2)c(F)n1 [US20250215013, Example 188]
